Test results from patent publication US8815933B2 (EnVivo Pharmaceuticals, Inc., priority 2008, dated 2014).

Legend:
[1] = tested on: patients suffering from schizophrenia; experiment: P50 sensory gating evoked response in schizophrenia patients; type: in vivo, Human
Experimental: The test described above was used to study the effect of the test compound on cognition in patients suffering from schizophrenia. Prior to testing, the patients were dosed with: 1 mg of the test compound daily, 0.3 mg of the test compound daily or were administered a placebo for 20 days. Subjects were tested as described below. P50 waves were elicited by clicks, 1 msec in duration, grouped in pairs in the classic S1-S2 sequence and presented through earpieces inserted into the auditory canals. Click intensity was adjusted individually to 50 dB above the hearing threshold. The offset-to-onset time from S1 to S2 was fixed at 500 msec. The offset-to-onset time between click pairs was varied from 7-11 sec. […] P50 response amplitude was calculated as the voltage difference between the P50 peak and the preceding negative trough. The P50 gating ratio was then calculated after (Olincy et al., 2006) as the amplitude of the P50 response to the second (test) stimulus divided by the amplitude of the P50 response to the first (conditioning) stimulus. […] The P50 amplitude difference (Fuerst et al., 2007) was also measured. […] Unfortunately, in the case of the P50/[…] gating study, it was necessary to discard several patients and post-treatment assignment time points from the analysis because, in those instances, a P50 waveform was not identifiable and therefore could not be measured. […]

[2] = tested on: patients suffering from schizophrenia; experiment: MMN and P300 evoked responses (oddball sequence) in schizophrenia patients; type: in vivo, Human
Experimental: The test described above was used to study the effect of the test compound on cognition in patients suffering from schizophrenia. Prior to testing, the patients were dosed with: 1 mg of the test compound daily, 0.3 mg of the test compound daily or were administered a placebo for 20 days. Subjects were tested as described below.
The MMN and P300 components were elicited during the so-called oddball sequence. The stimulus sequence was a series of lower (500 Hz) and higher (1000 Hz) pitched pure tones presented at a rate of 1 tone per 0.6 sec. The tones were 50 msec in duration, 50 dB above hearing level, and randomly interspersed. The higher pitched tone was the oddball event. Across the series of 600 tones, it occurred at a probability of 0.2. The other tone occurred at the complementary probability of 0.8. Patients were instructed to ignore the tones and instead attend to a magazine held in the lap.
During the task, EEG and EOG activity were digitized at a rate of 500 Hz per channel for 50 msec preceding and 500 msec following stimulus onset. Trials contaminated by eyeblinks or eye movements were removed. An off-line program digitally filtered (bandpass=0.1-30 Hz, 12 db roll-off) responses to the rare and frequent events and constructed averaged event related responses for each electrode. At the FCz electrode, the MMN was measured by an automated algorithm that computed the summed amplitude, relative to the prestimulus baseline, over a 100-200 msec time window following the onsets of the rare (oddball) and frequent tones. MMN was then recalculated as the voltage difference between these responses. P300 amplitude was measured at the Pz electrode site as the peak amplitude between 250 and 500 msec following stimulus onset.
MMN and P300 amplitude reflect activation of multiple precortical and cortical pathways sensitive to stimulus novelty, short term memory, and attention. MMN was calculated as the voltage difference over 100-200 msec post-stimulus onset between the responses to the rare and frequent stimuli. […] P300 is not entirely independent of MMN. P300 was calculated as the peak amplitude relative to the average voltage of the waveform during the 50 msec prestimulus period. A more positive P300 response is indicative of improved cognitive function. P300 is maximal in amplitude when the eliciting stimulus is both rare and task relevant (i.e., attended). In the present study, the rare stimulus was not task relevant. In fact, the patient was instructed to perform no task and to ignore the stimuli. In the present study, therefore, P300 amplitude is very small in comparison to amplitudes recorded under active task conditions. The present P300 component is more similar to the small, frontally-generated P300a described by Knight and colleagues than the large, parietally-generated P300b described in most studies of attentional dysfunction in schizophrenia.
In the analysis of P50 and N100 the baseline value was the covariate and all values obtained during the treatment period were averaged together. Data loss from unidentifiable MMN and P300 components was minimal. These analyses were conducted upon data obtained from n=4 patients treated with placebo, n=7 patients treated with 0.3 mg of the test compound, and n=8 patients treated with 1.0 mg of the test compound.

[3] = maximum plasma concentration in human SAD/MAD clinical trials; type: in vivo; settings: for Cmax: plasma, oral
Experimental: Multiple ascending dose (MAD) human clinical trials were conducted.
These values are 35-2000 times lower than would have anticipated if efficacy was to be achieved when the free plasma concentration reached the Ki or the ECref concentrations. […] These values are 9.4-667 times lower than expected.

normal subjects [4] = experiment: CogState battery in MAD studies; type: in vivo, Human
Experimental: The impact of the test compound on cognition in normal subjects was assessed as described below. In these studies, subjects were treated with the test compound dissolved in cranberry juice. In the MAD (Multiple Ascending Dose) studies cognition was assessed using tests from the CogState battery (cogstate.com). […] The CogState battery is a proprietary computerized cognitive battery of tests measure various cognitive domains including: attention, identification capability, working memory, visual memory, and executive function. […] The magnitude of the effects were, in many cases, significant with effect sizes being >0.4 (a threshold effect size which is commonly accepted as having clinical significance).

[5] = maximum plasma concentration in human SAD/MAD clinical trials; type: in vivo; settings: SAD, Day 1, 3.5 mg
normal subjects [6] = experiment: Digit Symbol Substitution Test (DSST) in SAD study; type: in vivo, Human; settings: daily dose as low as 1 mg
Experimental: The impact of the test compound on cognition in normal subjects was assessed as described below. In these studies, subjects were treated with the test compound dissolved in cranberry juice.
The impact of the test compound on cognition in normal subjects was assessed in a SAD (Single Ascending Dose) study with the Digit Symbol Substitution Test (DSST). […] The positive effects of the test compound in the DSST indicate a beneficial effect on working memory and executive function.

[7] = free fraction of drug in dog plasma
Experimental: (§1) The free drug concentration in plasma ([free drug]plasma) is determined by measuring the total drug concentration in the plasma ([total drug]plasma) and the free fraction of the drug, i.e., the fraction of the drug that is not bound to plasma protein (fuplasma):[free drug]plasma=[total drug]plasmaX fuplasma. The total plasma drug concentration and the fraction that binds to plasma protein can both be measured using techniques known to those of skill in the art.

[8] = free fraction of drug in rat plasma
Experimental: as §1

half-life in rat = settings: in vivo, iv, 1 mg/kg
[9] = half-life in humans (clinical trials); type: in vivo, Human; settings: for half-life: plasma, 1 mg
From the text: The unexpectedly long half-life in humans has several advantages. It allows for once a day dosing. The drug will also have a very small dynamic plasma range over the course of a day (about 15-20%). Thus, if a patient misses a daily dose, the plasma level and the consequent brain level will not be altered by a great degree. This means that the beneficial effects of the drug will be less dependent upon careful adherence to a specific dosing scheme. Third, long half-life and slow elimination also mean that the final dose will be lower than expected. This readily observed by looking at the Cmax values on Day 1 versus Day 21. The Cmax values on Day 21 are about 3.6-4.2 times higher than the Day 1 values. This ratio will translate into a dose that is 3.6-4.2 times lower than would normally be expected due to this favorable accumulation.

[10] = free fraction of drug in human plasma
Experimental: as §1

half-life in dog = settings: in vivo, iv

For `Cl.O=C(N[C@H]1CN2CCC1CC2)c1cc2cccc(Cl)c2s1`, which “P50 amplitude difference (C-T), baseline-adjusted” value ([1]; 1.0 mg daily for 20 days vs placebo, FIG. 1B, F=3.97, P=0.07) is on record?
The value was “normalization at the high dose”.

What about the “effects on the P50 component of the evoked response” value ([1]; limited to 1.0 mg dose, p=0.1) of the same compound?
The value was “technically not significant”.

And the “MMN component vs placebo” value ([2]; 0.3 mg daily for 20 days)?
The value was “significantly (p<0.05) larger”.

What about the “P300 component vs placebo” value ([2]; 0.3 mg daily for 20 days) of the same compound?
Its value is “significantly (p<0.05) larger”.

And the “MMN component vs placebo” value ([2]; 1.0 mg daily for 20 days)?
Its value is “significantly (p<0.05) larger”.

And the “P300 component vs placebo” value ([2]; 1.0 mg daily for 20 days)?
Its value is “significantly (p<0.05) larger”.

And the MMN amplitude ([2]; 0.3 and 1.0 mg daily, dose-related, F=4.96, P=0.02, FIG. 3A)?
The MMN amplitude was “increased”.

What about the P300 amplitude ([2]; 0.3 and 1.0 mg daily, dose-related, F=6.88, P=0.008, FIG. 3B) of the same compound?
Its P300 amplitude is “increased”.

And the “maximum free plasma concentration” value ([3]; 0.3 mg dose, human)?
The value was 0.073 to 0.283 nM.

What about the free plasma concentration ([3]; 1.0 mg doses, human) of the same compound?
Its free plasma concentration is 0.237 to 1.06 nM.

What about the Cmax free ([3]; MAD1, Day 1, 1 mg) of the same compound?
Its Cmax free is 0.252 nM.

And the Cmax total ([3]; MAD1, Day 1, 1 mg)?
The Cmax total was 1.96 nM.

And the Cmax free ([3]; MAD1, Day 7, 1 mg)?
The Cmax free was 0.853 nM.

What about the Cmax total ([3]; MAD1, Day 7, 1 mg) of the same compound?
Its Cmax total is 6.61 nM.

And the Cmax free ([3]; MAD1, Day 14, 1 mg)?
The Cmax free was 1.06 nM.

And the Cmax total ([3]; MAD1, Day 14, 1 mg)?
The Cmax total was 8.23 nM.

What about the Cmax free ([3]; MAD2, Day 1, 0.1 mg) of the same compound?
Its Cmax free is 0.022 nM.

What about the Cmax total ([3]; MAD2, Day 1, 0.1 mg) of the same compound?
The Cmax total was 0.172 nM.

And the Cmax free ([3]; MAD2, Day 1, 1 mg)?
The Cmax free was 0.251 nM.

What about the Cmax total ([3]; MAD2, Day 1, 1 mg) of the same compound?
Its Cmax total is 1.943 nM.

And the Cmax free ([3]; MAD2, Day 21, 0.1 mg)?
The Cmax free was 0.093 nM.

And the Cmax total ([3]; MAD2, Day 21, 0.1 mg)?
Its Cmax total is 0.724 nM.

What about the Cmax free ([3]; MAD2, Day 21, 1 mg) of the same compound?
The Cmax free was 0.974 nM.

What about the Cmax total ([3]; MAD2, Day 21, 1 mg) of the same compound?
Its Cmax total is 7.547 nM.

What about the Cmax free ([3]; MAD3, Day 1, 0.3 mg) of the same compound?
Its Cmax free is 0.073 nM.

And the Cmax total ([3]; MAD3, Day 1, 0.3 mg)?
The Cmax total was 0.568 nM.

And the Cmax free ([3]; MAD3, Day 1, 1 mg)?
The Cmax free was 0.221 nM.

What about the Cmax total ([3]; MAD3, Day 1, 1 mg) of the same compound?
Its Cmax total is 1.71 nM.

And the Cmax free ([3]; MAD3, Day 21, 0.3 mg)?
Its Cmax free is 0.283 nM.

And the Cmax total ([3]; MAD3, Day 21, 0.3 mg)?
Its Cmax total is 2.195 nM.

What about the Cmax free ([3]; MAD3, Day 21, 1 mg) of the same compound?
The Cmax free was 0.800 nM.

And the Cmax total ([3]; MAD3, Day 21, 1 mg)?
The Cmax total was 6.20 nM.

What about the Cmax free ([3]; SAD, Day 1, 1 mg) of the same compound?
Its Cmax free is 0.237 nM.

What about the Cmax total ([3]; SAD, Day 1, 1 mg) of the same compound?
Its Cmax total is 1.84 nM.

And the Cmax total ([3]; SAD, Day 1, 3.5 mg)?
Its Cmax total is 6.42 nM.

What about the Cmax ([3]; human, 0.1 mg, MAD2, Day 1, 0.1 mg) of the same compound?
The Cmax was 0.055 ng/mL.

And the Cmax ([3]; human, 0.1 mg, MAD2, Day 21, 0.1 mg)?
The Cmax was 0.232 ng/mL.

And the Cmax ([3]; human, 0.3 mg, MAD3, Day 1, 0.3 mg)?
Its Cmax is 0.182 ng/mL.

And the Cmax ([3]; human, 0.3 mg, MAD3, Day 21, 0.3 mg)?
Its Cmax is 0.704 ng/mL.

What about the Cmax ([3]; human, 1 mg, MAD1, Day 1, 1 mg) of the same compound?
The Cmax was 0.63 ng/mL.

And the Cmax ([3]; human, 1 mg, MAD1, Day 7, 1 mg)?
The Cmax was 2.12 ng/mL.

And the Cmax ([3]; human, 1 mg, MAD1, Day 14, 1 mg)?
Its Cmax is 2.64 ng/mL.

What about the Cmax ([3]; human, 1 mg, MAD2, Day 1, 1 mg) of the same compound?
The Cmax was 0.623 ng/mL.

What about the Cmax ([3]; human, 1 mg, MAD2, Day 21, 1 mg) of the same compound?
Its Cmax is 2.42 ng/mL.

What about the Cmax ([3]; human, 1 mg, MAD3, Day 1, 1 mg) of the same compound?
Its Cmax is 0.547 ng/mL.

And the Cmax ([3]; human, 1 mg, MAD3, Day 21, 1 mg)?
Its Cmax is 1.99 ng/mL.

And the Cmax ([3]; human, 1 mg, SAD, Day 1, 1 mg)?
The Cmax was 0.59 ng/mL.

What about the Cmax ([3]; human, 3.5 mg, SAD, Day 1, 3.5 mg) of the same compound?
Its Cmax is 2.06 ng/mL.

And the effect sizes (normal subjects [4]; CogState, in many cases)?
Its effect sizes is greater than 0.4.

And the effect on attention (normal subjects [4]; CogState, normal subjects)?
The effect on attention was “without having a stimulatory effect on attention”.

What about the “impact on visual motor skills, learning, executive function, and delayed memory” value (normal subjects [4]; normal subjects, MAD studies, CogState) of the same compound?
The value was “positive impact”.

And the “cognition in CogState battery” value (normal subjects [4]; normal subjects, MAD studies, daily dose as low as 1 mg)?
Its value is “pro-cognitive effects”.

What about the Cmax free [5] of the same compound?
The Cmax free was 0.828 nM.

And the “cognition in Digit Symbol Substitution Test” value (normal subjects [6])?
The value was “pro-cognitive effects”.

For `O=C(N[C@H]1CN2CCC1CC2)c1cc2cccc(Cl)c2s1`, which “dynamic plasma range over the course of a day” value ([3]; human, once a day dosing) is on record?
Its value is 15-20%.

And the Dog fuplasma [7]?
Its Dog fuplasma is 0.107.

And the Rat fuplasma [8]?
The Rat fuplasma was 0.112.

And the half-life (half-life in rat)?
The half-life was 166 min.

And the half-life ([9]; human, oral, read-out: observed half-life in humans (converted))?
Its half-life is 2.5 days.

What about the half-life ([9]; po, Human, p.o., read-out: t1/2) of the same compound?
The half-life was 2.09 to 2.92 days.

What about the “human half-life suggested by initial allometric scaling” value ([9]; scaled from rat and dog half-life) of the same compound?
The value was “about 8 hours”.

And the Human fuplasma [10]?
The Human fuplasma was 0.129.

And the half-life (half-life in dog; 0.5 mg/kg)?
Its half-life is 323 min.

And the half-life (half-life in dog; 3 mg/kg)?
Its half-life is 780 min.
